Experimental data reported in US12448393B2, “Use of novel compound, for preventing, improving or treating amyotrophic lateral sclerosis” (PRG S&TECH INC., priority 2019, dated 2025).
“Also recorded” adds a separate entry of the source.

What was measured:
normal human fibroblasts = assay: Cell viability measurement (MTT), normal fibroblasts; format: cell-based; settings: for cytotoxic effect in normal fibroblasts: MTT, FIG. 4E, FIG. 9B
Procedure: HEK293 cells were purchased from American Type Culture Collection (ATCC, Manassas, VA, USA) and maintained at 37° C. and 5% CO2 in DMEM liquid medium including 10% fetal bovine serum and 1% penicillin-streptomycin. SK—N—SH cells were purchased from Korean Cell Line Bank (KCLB, Seoul, South Korea) and maintained in MEM medium including 10% fetal bovine serum, 1% antibiotic, 25 mM HEPES, and 300 mg/L L-Glu. Human fibroblasts (person) were purchased from Coriell Cell Repositories (New Jersey, USA) and maintained in EMEM including 15% FBS, 2 mM Glutamine, and 26 mM HEPES without antibiotics. Thapsigargin (ER calcium scavenger: CAS 67526-95-8) was purchased from Calbiochem (Darmstadt, Germany). CoCl2 (hypoxia-inducer: C8661) was purchased from Sigma Aldrich (St, Louis, Mo, USA).
To check cells viability, the cells were reacted with 0.5 mg/ml MTT solution (475989; Merck, Darmstadt, Germany) at 37° C. for 4 hours. After removing residual solution and washing with PBS, precipitate was dissolved in 200 μl DMSO, and quantified by measuring absorbance at 540 nm.

misfolded SOD1 [1] = assay: Dot blot analysis of misfolded SOD1 in transfected cell lysates; format: cell-based, human; settings: lysates of cells transfected with WT- or mutant SOD1; FIG. 5D
Procedure: (§1) To detect misfolded SOD1 expression, cells transfected with SOD1 vector were treated with the compounds for 24 hours. After reaction, the cells were lysed with a lysis buffer without surfactant, and then cell lysate was fixed on a nitrocellulose membrane using a Bio-Dot SF Microfiltration apparatus (Bio-Rad Laboratories, Hercules, CA). In the case of peptide reaction, SOD1 recombinant proteins were reacted with the compounds for 1 hour, and then samples were loaded onto membrane. Each membrane was washed with TBS and blocked with 3% skim milk to prevent non specific reaction. After blocking, the membrane was reacted with the misfolded SOD1 or Actin antibody (1:8,000 in TBST including 1% skim milk) for 30 minutes, and then with a secondary antibody (goat anti-mouse IgG-horseradish peroxidase, 1:50,000 in 1% skim milk blocking buffer) for 30 minutes. Antibodies reacted to proteins were detected by ECL and X-ray film exposure. Actin was used as a loading control.

misfolded SOD1 [2] = target: misfolded SOD1 (Homo sapiens, UniProt P00441, G94A); assay: as above; format: cell-based; settings: G93A-transfected cell lysates; FIG. 5E
Procedure: as §1

[3] = test system: WT-SOD1 and mutant SOD1-GST (A4V, G37R, G85R, G93A); assay: ELISA compound screening for binding inhibitor between WT-SOD1 and mutant SOD1; set-up: species or system human
Procedure: For compound screening, the present inventors applied an ELISA assay system. To select a binding inhibitor between WT-SOD1 and mutant SOD1, the present inventors used 0.5% paraformaldehyde (PFA) to fix WT-SOD1 recombinant protein on a 96-well plate. The plate was dried, washed with phosphate-buffered saline (PBS), and reacted with the compounds at a final concentration of 50 μM, and then mutant SOD1-GST (A4V, G37R, G85R, G93A) proteins were added. After 2 hours of reaction, the 96-well plate was washed with PBS and blocked with 3% skim milk to prevent non specific reaction. The plate was reacted with anti-GST antibody (diluted at 1:10,000) for 1 hour, and then reacted with anti-mouse IgG-HRP (diluted at 1:50,000) for 1 hour. After washing twice, the plate was reacted with a 3,3′,5,5′-tetramethylbenzidine (TMB) solution (Calbiochem) for 30 minutes and a stop solution (1N H2SO4) for 30 minutes. Finally, the present inventors analyzed values using an ELISA reader (450 nm absorbance). Negative control (−; red line) was reacted without mutant SOD1, and positive control (+; blue line) was reacted with mutant SOD1 without the compounds.
To prepare recombinant proteins, human SOD1 (WT, A4V, G37R, G85R, G93A) was added to EcoRI and HindIII sites of pGEX-TEV vector, an improved vector made by adding a TEV protease cleavage site to pGEX-4T1 (Invitrogen). The recombinant proteins were expressed as GST-fusion proteins in Escherichia coli (E. coli) strain BL21 (DE3). The proteins were purified by glutathione-affinity chromatography.

SOD1 [4] = assay: Immunofluorescence staining of SOD1 aggregation and misfolded SOD1; format: cell-based, human; settings: Table 1; IF staining of SOD1
Procedure: (§2) Cells on coverslip were washed with PBS, fixed with 4% PFA at room temperature for 30 minutes, and then infiltrated with 0.1% Triton X-100/PBS for 10 minutes. The cells were treated with blocking solution (anti-Human Antibody 1:500 dilution in PBS) for 1 hour, and then cells were reacted with anti-pan SOD1 (1:400 dilution), misfolded SOD1 (B8H10; 1:200 dilution in blocking solution) at 4° C. overnight. Finally, the cells were reacted with FITC and rhodamine-conjugated secondary antibody at 4° C. for 6 hours. Nuclei were stained with 4,6-diamidino-2-phenylindole (DAPI), and endoplasmic reticula (ERs) were stained with ER-Tracker Red dye for 10 minutes. The cells were washed 3 times with PBS, and then coverslips were mounted with mounting solution [H-5501; Vector Laboratories (Burlingame, CA, USA)] and analyzed by fluorescence microscopy (Zeiss).
(§3) GFP-SOD1 (WT, G85R, G93A), non-tagged SOD1 (WT, A4V, G37R, G85R, G93A) and tdTomato-TDP43 expression vectors were purchased from Addgene (Cambridge, MA, USA). Transfection was performed using Jet-PEI reagent (JetPEI; Polyplus transfection, New York, NY, USA) according to the manufacturer's protocol. Briefly, vectors were mixed with JetPEI reagent in 150 mM NaCl buffer, and then mixture was reacted for 15 minutes. The mixture was added to cells in serum-free medium and reacted for 4 hours. After reaction, the cells were replaced with a culture medium supplemented with 10% FBS.

SOD1 [5] = target: SOD1 (Homo sapiens, UniProt P00441); assay: as above; format: cell-based
Procedure: as §2, §3

[6] = Pharmacokinetics (PK) analysis; format: in vivo; settings: FIG. 8E

Chain of SOD1 (Homo sapiens, UniProt P00441) (P00441 2-154): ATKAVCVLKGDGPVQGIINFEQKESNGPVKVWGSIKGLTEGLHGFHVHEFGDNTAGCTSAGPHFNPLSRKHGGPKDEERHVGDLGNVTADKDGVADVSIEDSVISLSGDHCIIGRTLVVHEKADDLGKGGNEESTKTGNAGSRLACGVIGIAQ
Chain of misfolded SOD1 (Homo sapiens, UniProt P00441, G94A) (P00441 2-154 G94A): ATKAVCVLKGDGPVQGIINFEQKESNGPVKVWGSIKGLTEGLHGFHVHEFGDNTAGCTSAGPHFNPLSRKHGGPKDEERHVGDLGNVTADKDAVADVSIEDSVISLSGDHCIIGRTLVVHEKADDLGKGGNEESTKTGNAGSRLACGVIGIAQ

COc1cc(/C=C/C(=O)O[C@H]2Cc3cc4ccc(=O)oc4cc3OC2(C)C)ccc1O [PRG-A-01, (S)-8,8-dimethyl-2-oxo-7,8-dihydro-2H,6H-pyrano[3,2-g]chromen-7-yl (E)-3-(4-hydroxy-3-methoxyphenyl) acrylate]
cytotoxic effect in normal fibroblasts (normal human fibroblasts): not cytotoxic
cytotoxic effect in normal fibroblasts (normal human fibroblasts; listed as SLC-B036): did not exhibit cytotoxic effect
Toxicity (MTT) (normal human fibroblasts; Table 1, cell type not given, neurons (FIG. 9A) and normal fibroblasts (FIG. 9B)): No
misfolded SOD1, dot blot (misfolded SOD1 [1]): reduces misfolding formation of SOD1; also recorded: band intensity clearly decreased
misfolded SOD1, dot blot, according to doses (misfolded SOD1 [2]): dose-dependent decrease in misfolded SOD1
ELISA ([3]; Table 1, compounds at final concentration of 50 μM): Effect ○
binding inhibition in ELISA compound screening ([3]; WT-SOD1 fixed on plate, GST-tagged mutant SOD1s, FIG. 3A): specific for mutation
Immuno-fluorscence (SOD1 [4]): Effect ○
misfolded SOD1 / SOD1 aggregation induced by hypoxic stress (SOD1 [5]; CoCl2, FIG. 6C): blocks SOD1 aggregation induced by hypoxic stress; also recorded: reduced
SOD1 aggregation induced by TDP-43 overexpression, immunofluorescence (SOD1 [5]; FIG. 5A): inhibited; also recorded: reduce the SOD1 aggregation as well as TDP-43
time to disappearance in body / blood [6]: ≤ 30 min
